Assay results published in PubChem BioAssay AID1996.
≈ marks a conversion by molar mass, not a printed value.

Conditions: buffer; pH 7.4; 200.0 µM

solubility kinetic [µg/mL] | SMILES
> 47.8 | Cc1cccc(NC(=O)CNC(=O)COC(=O)C2CC2C)c1C (centres undefined)
0.3 (≈ 1.04 µM) | Cc1ccc(Nc2nc(C)nc3c2oc2ccccc23)cc1
> 29 | O/N=C\c1cccn1-c1nccs1
39.2 (≈ 84.4 µM) | CS(=O)(=O)c1ccc(C(=O)OCC(=O)NC(=O)C2COc3ccccc3O2)cc1[N+](=O)[O-] (centres undefined)
48 | Cc1ccc(C(=O)c2coc3ccc(O)c(CN(C)C)c23)cc1.Cl
55.6 (≈ 141 µM) | CCN(CC(=O)NCc1ccc2c(c1)OCO2)S(=O)(=O)c1ccc(F)cc1
> 41.3 | COC(=O)c1ccc(S(=O)(=O)N2CCOCC2)o1
37.2 | Cl.Clc1cccc(OCCN2CCCC2)c1
0.7 (≈ 2.15 µM) | O=C(NC12CC3CC(CC(C3)C1)C2)c1cc(F)c(F)cc1Cl
38.8 (≈ 131 µM) | CC(C)C(=O)Nc1cc(C(F)(F)F)ccc1-n1ccnc1
2.1 (≈ 6.92 µM) | O=[N+]([O-])c1ccc(N2CCN(CC3CCCCC3)CC2)cc1
2.7 (≈ 8.05 µM) | O=c1c(Cc2ccccc2)c(O)ccn1Cc1ccc2c(c1)OCO2
> 47.8 | C/C(=N\OCC(=O)Nc1ccccc1C(=O)O)c1cccs1
> 48.8 | Cc1ccc(/C(O)=C2\C(=O)C(=O)N(C)C2c2ccc(F)cc2)cc1 (centres undefined)
7.1 (≈ 19.6 µM) | COc1ccc(/C=C/C(=O)OCC(=O)NC2CCCCCC2)cc1OC
> 43.4 | CN1C2CCC1CC(NC(=O)c1ccc([N+](=O)[O-])cc1)C2 (centres undefined)
> 48.3 | Cc1ccccc1-n1c(=O)n(Cc2ccco2)c(=O)c2[nH]cnc21
1.5 (≈ 4.76 µM) | O=C(Nc1ccccc1N1CCCCC1)c1ccc(Cl)cc1
> 43.9 | CCOc1ccc(NC(=O)CSc2nncn2C)cc1

solubility kinetic [µg/mL] | SMILES
3 (≈ 9.91 µM) | Cc1cccnc1NC(=O)c1sc2ccccc2c1Cl
38.8 (≈ 150 µM) | O=C(O)C1C2CCC(C2)C1C(=O)Nc1ccccc1 (centres undefined)
> 46.6 | CC1CC1C(=O)Nc1nc2ccc(S(C)(=O)=O)cc2s1 (centres undefined)
> 46.4 | O=C(O)CC(CN1C(=O)c2ccccc2C1=O)c1ccccc1 (centres undefined)
6.6 (≈ 16.7 µM) | Cc1ccc(F)cc1NC(=O)N1CCCN(c2ccc(C(F)(F)F)cn2)CC1
> 50.1 | O=C(O)c1cc(-c2ccc(Br)s2)nc2ccccc12
39.8 (≈ 134 µM) | O=C(NCCc1ccccc1)c1ccc2c(c1)OCCCO2
49.3 (≈ 148 µM) | CSc1sc(C(=O)NCC2CC2)cc1S(=O)(=O)C(C)C
> 40.7 | CC(CC(=O)O)C(=O)c1ccc(Cl)c([N+](=O)[O-])c1 (centres undefined)
32.5 (≈ 131 µM) | O=C(OCc1ccccc1)c1cccnc1Cl
10.3 (≈ 32.7 µM) | COc1ccc(NC(=O)c2ccc3c(c2)OCCO3)cc1OC
> 37.1 | CC1CC1C(=O)OCC(=O)NCc1ccccc1 (centres undefined)
> 45.3 | O=C(O)c1ccccc1Nc1ccc([N+](=O)[O-])cc1C(=O)O
> 39.3 | NC(=O)CN1CCCC1c1ccc2c(c1)OCCO2 (centres undefined)
2 (≈ 5.96 µM) | O=C(Nc1ccccc1C(=O)Nc1ccccn1)c1ccccc1F
> 47.2 | COc1ccc(C)cc1NC(=O)C(C)N1CCOCC1.Cl (centres undefined)
3.7 (≈ 10.9 µM) | Cc1onc(-c2ccccc2)c1-c1nc2cc(Cl)ccc2c(=O)o1
2.9 (≈ 9.45 µM) | Cc1ccc(C)c(SCC(=O)Nc2cccnc2Cl)c1
> 52.1 | CCN(C(=O)CN1C(=S)NC(C)(C)CC1C)c1ccc(C)c(C)c1 (centres undefined)

solubility kinetic [µg/mL] | SMILES
30 (≈ 112 µM) | Cc1cc(SCc2ccccc2Cl)nc(=O)[nH]1
> 49.4 | CCCC(=O)N1CCCC(c2nc(-c3cccc(OC)c3)no2)C1 (centres undefined)
> 41 | NC(=O)C1CCN(c2ccc(C(F)(F)F)cn2)CC1
31.4 (≈ 127 µM) | O=C(Cn1ccccc1=O)c1ccc(Cl)cc1
> 50.8 | O=S(=O)(NC1CCCCC1N1CCC(O)CC1)c1ccccc1 (centres undefined)
5.3 (≈ 16.1 µM) | COC(OC)C1(C)C(C#N)=C(N)Oc2c1c(=O)oc1ccccc21 (centres undefined)
> 41.5 | Cc1cc(C)[n+](Cc2ccccc2)cc1C(N)=O.[Cl-]
> 49.9 | CCN(CC(=O)Nc1c(F)cccc1F)C(=O)Cc1ccccc1
> 34.8 | CC(NC(=O)CN1CCCC1)c1ccccc1 (centres undefined)
24.4 | COC(=O)C(N)Cc1ccc(O)c(O)c1.Cl (centres undefined)
> 54.6 | CSc1ccc(CN(C)C(=O)c2cc(Cl)c3c(c2)OCCO3)cc1
37.1 (≈ 141 µM) | CC(=O)N1CCC(O)(c2ccc3c(c2)OCO3)CC1
27.1 (≈ 142 µM) | CC(=O)Cn1c(=O)oc2ccccc21
25.2 (≈ 58.3 µM) | Cc1ccc(S(=O)(=O)c2nc(-c3ccccc3Cl)oc2N2CCN(C)CC2)cc1
43.9 (≈ 139 µM) | CC(Sc1nc2ccccc2[nH]1)C(=O)Nc1ccccc1F (centres undefined)
49.4 (≈ 88.7 µM) | COc1ccc(C(CNC(=O)c2cc(S(=O)(=O)N3CCN(c4ccccc4)CC3)ccc2Cl)N(C)C)cc1 (centres undefined)
43.8 (≈ 147 µM) | COc1cccc(C(=O)N2CCN(c3ccccn3)CC2)c1
> 50.1 | CN(NC1OC(=O)c2ccccc21)c1ccc(Cl)cc1[N+](=O)[O-] (centres undefined)
4.6 (≈ 13.6 µM) | COc1ccc(Nc2cc(Sc3ccc(OC)cc3)ncn2)cc1

SMILES | solubility kinetic [µg/mL]
Cc1ccc(C)c(OCCCNCc2ccccc2)c1.O=C(O)C(=O)O | > 53.9
Cc1c(O)ccc(C(=O)CN2CC(C)OC(C)C2)c1O (centres undefined) | > 41.9
